Where a name gives a salt, the structure may show the parent alone.
Tests used:
normal subject = assay: Delay of ejaculation after an oral dose taken 30–60 minutes prior to sexual intercourse; assay type: in vivo, human
From the text: […]. […] […]

μ-opioid receptors = settings: cited from earlier work
animal models = settings: cited from earlier work

SMILES	delay of ejaculation (normal subject; 25 mg orally, 30–60 minutes prior to sexual intercourse, normal subject) [min]	ejaculation/orgasm achieved (normal subject; 100 mg)	side effects associated with the dose (normal subject; doses of 50–100 mg)	affinity of binding to μ-opioid receptors (μ-opioid receptors)	potency in μ-opioid binding relative to tramadol (μ-opioid receptors) [times]	potency in producing analgesia relative to tramadol (animal models)
COc1cccc([C@]2(O)CCCC[C@H]2CN(C)C)c1 (racemic) [tramadol hydrochloride, (±)cis-2-[(dimethylamino)methyl]-1-(3-methoxyphenyl)-cyclohexanol hydrochloride]	10 to 15	sometimes ejaculation/orgasm was not achieved	drowsiness, lightheadedness, dry mouth and a sense of slight euphoria (opioid effect)	–	–	–
CN(C)C[C@H]1CCCC[C@]1(O)c1cccc(O)c1 [M1]	–	–	–	higher affinity binding	200	up to 6 times
COc1cccc(C2(O)CCCCC2CN(C)C)c1 (stereo not shown) [tramadol, 2-[(dimethylamino)methyl]-1-(3-methoxyphenyl)-cyclohexanol]	–	–	–	low affinity binding	–	–

— patent publication US6974839B2, “Method of delaying ejaculation” (DMI BioSciences, Inc., priority 2001, dated 2005)
